Reference: ChEMBL document CHEMBL4806963, “Antagonistic peptides for frizzled-1 and frizzled-2” (2013)
Active and inactive are the calls of the source. The calls are words filed in the database; no cut-off is given here. Where a SMILES comes first, the peptide text is derived from it.

Experiments:
[1] = test system: Mus musculus; assay: Cardioprotective activity against myocardial infarction Swiss mouse model assessed as increase in alpha-SMA protein expression in heart at 6 ug/kg/day, sc via osmotic pumps for 5 weeks by western blot analysis; format: functional, organism-based; conditions: dose 6.0 µg/kg/day
[2] = target: Frizzled-2 (Homo sapiens) (UniProt Q14332); assay: Antagonist activity at frizzled-2 (unknown origin) expressed in rat C-FIT cells assessed as inhibition of Wnt5a-stimulated cell differentiation changes by measuring alpha-smooth muscle actin gene expression at 10 nM by quantitative RT-PCR analysis; format: functional, cell-based; conditions: filed as antagonist
Sequence of Frizzled-2 (Homo sapiens) (Q14332 24-565 limits assumed): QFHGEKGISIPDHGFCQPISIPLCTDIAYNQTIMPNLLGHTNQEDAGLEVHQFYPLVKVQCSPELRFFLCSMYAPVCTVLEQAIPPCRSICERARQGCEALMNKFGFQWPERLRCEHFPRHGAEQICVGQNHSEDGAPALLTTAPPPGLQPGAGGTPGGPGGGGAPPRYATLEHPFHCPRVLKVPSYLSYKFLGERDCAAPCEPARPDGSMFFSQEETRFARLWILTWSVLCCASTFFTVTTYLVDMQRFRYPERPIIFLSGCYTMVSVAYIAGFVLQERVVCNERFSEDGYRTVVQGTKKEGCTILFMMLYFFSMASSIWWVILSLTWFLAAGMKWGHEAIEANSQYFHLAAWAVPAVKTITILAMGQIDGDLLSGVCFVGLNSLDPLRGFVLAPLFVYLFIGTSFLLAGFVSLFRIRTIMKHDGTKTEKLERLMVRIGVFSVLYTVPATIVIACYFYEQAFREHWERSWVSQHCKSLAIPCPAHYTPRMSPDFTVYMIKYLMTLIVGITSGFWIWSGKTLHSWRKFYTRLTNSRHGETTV

[3] = target: Frizzled-1 (Rattus norvegicus) (UniProt Q08463); assay: Agonist activity at rat frizzled-1 expressed in African green monkey COS7 cells by luciferase reporter gene assay; format: cell-based
Sequence of Frizzled-1 (Rattus norvegicus) (Q08463 whole entry): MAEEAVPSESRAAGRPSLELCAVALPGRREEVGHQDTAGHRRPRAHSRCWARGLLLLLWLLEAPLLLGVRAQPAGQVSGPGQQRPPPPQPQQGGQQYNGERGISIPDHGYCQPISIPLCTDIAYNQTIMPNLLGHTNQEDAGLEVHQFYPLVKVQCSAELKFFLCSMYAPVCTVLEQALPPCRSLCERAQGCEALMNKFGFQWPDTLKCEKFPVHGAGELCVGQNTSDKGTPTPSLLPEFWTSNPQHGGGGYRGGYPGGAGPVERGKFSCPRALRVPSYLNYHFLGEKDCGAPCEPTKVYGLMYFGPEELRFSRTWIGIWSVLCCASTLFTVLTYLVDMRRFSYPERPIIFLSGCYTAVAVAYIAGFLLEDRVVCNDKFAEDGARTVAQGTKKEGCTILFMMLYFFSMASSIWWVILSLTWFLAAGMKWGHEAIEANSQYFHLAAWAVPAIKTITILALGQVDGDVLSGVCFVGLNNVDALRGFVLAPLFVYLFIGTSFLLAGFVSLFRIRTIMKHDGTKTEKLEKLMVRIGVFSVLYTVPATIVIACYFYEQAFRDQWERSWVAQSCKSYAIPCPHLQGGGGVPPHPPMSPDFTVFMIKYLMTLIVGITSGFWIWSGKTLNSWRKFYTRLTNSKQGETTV

[4] = target: Frizzled-1 (Homo sapiens) (UniProt Q9UP38); assay: Antagonist activity at frizzled-1 (unknown origin) expressed in rat C-FIT cells assessed as inhibition of Wnt3a-stimulated blockade of migration at 10 nM incubated for 48 hrs and measured for 24 hrs following the scratch by scratch wound healing assay; format: functional, cell-based; conditions: filed as antagonist, time 72.0 hrs
Sequence of Frizzled-1 (Homo sapiens) (Q9UP38 70-647 limits assumed): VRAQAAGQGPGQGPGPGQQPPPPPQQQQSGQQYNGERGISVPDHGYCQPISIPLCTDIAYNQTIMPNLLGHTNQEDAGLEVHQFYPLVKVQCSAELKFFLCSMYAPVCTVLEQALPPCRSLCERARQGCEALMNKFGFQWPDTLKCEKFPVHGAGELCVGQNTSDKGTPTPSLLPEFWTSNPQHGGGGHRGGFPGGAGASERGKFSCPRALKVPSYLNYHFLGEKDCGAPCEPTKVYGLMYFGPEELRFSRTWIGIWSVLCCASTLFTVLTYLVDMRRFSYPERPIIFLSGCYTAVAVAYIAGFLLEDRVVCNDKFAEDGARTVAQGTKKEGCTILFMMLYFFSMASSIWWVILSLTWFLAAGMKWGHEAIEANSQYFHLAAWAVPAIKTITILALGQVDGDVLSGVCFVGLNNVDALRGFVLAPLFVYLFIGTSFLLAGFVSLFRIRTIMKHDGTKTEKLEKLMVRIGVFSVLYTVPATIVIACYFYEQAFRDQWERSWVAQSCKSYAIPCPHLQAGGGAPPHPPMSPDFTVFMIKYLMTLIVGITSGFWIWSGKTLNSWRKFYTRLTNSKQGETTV

[5] = target: Frizzled-1 (Rattus norvegicus) (UniProt Q08463); assay: Antagonist activity at rat frizzled-1 expressed in rat C-FIT cells assessed as inhibition of Wnt3a-stimulated blockade of migration at 10 nM incubated for 48 hrs and measured for 24 hrs following the scratch by scratch wound healing assay; format: cell-based; conditions: filed as antagonist, time 72.0 hrs
[6] = test system: Mus musculus; assay: Cardioprotective activity against myocardial infarction Swiss mouse model assessed as increase in infarct area thickness in heart at 6 ug/kg/day, sc via osmotic pumps for 2 to 5 weeks by immunohistochemical staining analysis; format: functional, organism-based; conditions: dose 6.0 µg/kg/day, time 2-5 weeks
[7] = target: Frizzled-2 (Homo sapiens) (UniProt Q14332); assay: Antagonist activity at frizzled-2 (unknown origin) expressed in human HEK293superTOP flash cells incubated for 24 hrs by luciferase reporter gene assay; format: functional, cell-based; conditions: HEK293
[8] = test system: Mus musculus; assay: Cardioprotective activity against myocardial infarction Swiss mouse model assessed as reduction in infarction expansion in heart at 6 ug/kg/day, sc via osmotic pumps for 5 weeks by macroscopic analysis; format: functional, organism-based; conditions: dose 6.0 µg/kg/day
[9] = test system: Mus musculus; assay: Cardioprotective activity against myocardial infarction Swiss mouse model assessed as reduction in collagen level in infarct area at 6 ug/kg/day, sc via osmotic pumps for 5 weeks by immunohistochemical staining analysis; format: functional, organism-based; conditions: dose 6.0 µg/kg/day
[10] = test system: Mus musculus; assay: Cardioprotective activity against myocardial infarction Swiss mouse model assessed as increase in myofibroblast number at 6 ug/kg/day, sc via osmotic pumps for 5 weeks by immunohistochemical staining analysis; format: functional, organism-based; conditions: dose 6.0 µg/kg/day
[11] = species on record: Rattus norvegicus; assay: Selectivity index, ratio of IC50 for Wnt3a-stimulated rat frizzled-1 expressed in human HEK293superTOPFlash cells to IC50 for Wnt3a-stimulated rat frizzled-2 expressed in human HEK293superTOPFlash cells; format: cell-based

- inhibition [2]: 100%
- Activity [3]: inactive
- inhibition [4]: 100%
- inhibition [5]: 100%
- inhibition [7]: inactive
SMILES: CSCC[C@H](NC(=O)CNC(=O)[C@H](CCC(=O)O)NC(=O)[C@H](CO)NC(=O)[C@@H](NC(=O)[C@H](CCCCN)NC(=O)[C@H](CC(N)=O)NC(=O)[C@H](CS)NC(C)=O)[C@@H](C)O)C(=O)N[C@@H](CC(=O)O)C(=O)NCC(=O)N[C@@H](CS)C(=O)N[C@@H](CCC(=O)O)C(=O)N[C@@H](CC(C)C)C(N)=O (Ac-CNKTSEGMDGCEL-NH2)
- Activity [1]: Active
- Activity [6]: Active
- Activity [8]: Active
- Activity [9]: Active
- Activity [10]: Active
- Ratio IC50 [11]: 100
